Assay results reported in DBAASP.
Converted amounts (≈) assume the structure as drawn.

How the values were obtained:
Assay in all cases: ≥ marks a high value that may be exact or a test limit, other limits are often not marked, values filed in µg/mL are converted to µM
[1] = system: Lacticaseibacillus casei ATCC 334
[2] = system: Saccharomyces cerevisiae ATCC 204508
[3] = system: Klebsiella pneumoniae ATCC 700603
[4] = system: Micrococcus luteus ATCC 14452
[5] = system: Staphylococcus aureus ATCC 29213
[6] = system: Listeria monocytogenes ATCC 7611
[7] = system: Klebsiella aerogenes ATCC 13048
[8] = system: Lacticaseibacillus rhamnosus 7469
Escherichia coli UB1005 = system: Escherichia coli UB1005
[9] = system: Salmonella enterica subsp. enterica serovar Typhimurium C77-31
[10] = system: Pseudomonas aeruginosa ATCC 27853
[11] = system: Salmonella enterica subsp. enterica serovar Pullorum ATCC 7913
[12] = system: Streptococcus agalactiae CICC 10465
[13] = system: Salmonella enterica subsp. enterica serovar Typhimurium ATCC 14028
[14] = system: Staphylococcus epidermidis ATCC 12228
[15] = system: Streptococcus thermophilus YM-C
Streptococcus agalactiae = system: Streptococcus agalactiae
[16] = system: Staphylococcus aureus ATCC 25923
Escherichia coli 078 = system: Escherichia coli 078
[17] = system: Escherichia coli ATCC 25922
[18] = system: Acinetobacter baumannii ATCC 19606
[19] = system: Staphylococcus aureus ATCC 43300
[20] = system: Staphylococcus aureus SH1000
[21] = system: Cryptococcus neoformans ATCC 208821
[22] = system: Candida albicans ATCC 90028
Escherichia coli TOP 10 = system: Escherichia coli TOP 10
[23] = system: Candida albicans ATCC 14053
[24] = system: Candida parapsilosis ATCC 22019
[25] = system: Candida glabrata ATCC 2001
Candida krusei ATCC 6258 = system: Candida krusei ATCC 6258
[26] = system: Staphylococcus aureus ATCC BAA-1683
Escherichia coli = system: Escherichia coli
Salmonella sp. = system: Salmonella sp.
Yersinia enterocolitica = system: Yersinia enterocolitica
[27] = system: Salmonella enterica subsp. enterica serovar Enteritidis
[28] = system: Candida albicans FRR 5580
[29] = system: Pseudomonas aeruginosa ATCC 9027
[30] = system: Bifidobacterium longum subsp. infantis
Staphylococcus aureus = system: Staphylococcus aureus

SMILES: CC[C@H](C)[C@H](NC(=O)[C@H](CC(C)C)NC(=O)[C@H](C)NC(=O)[C@H](Cc1ccccc1)NC(=O)[C@H](C)N)C(=O)N[C@@H](C)C(=O)NCC(=O)N[C@@H](C)C(=O)N[C@@H](CC(C)C)C(=O)N[C@@H](Cc1ccc(O)cc1)C(=O)N[C@@H](CCCN=C(N)N)C(=O)N[C@H](C(=O)N[C@@H](Cc1ccccc1)C(=O)N[C@@H](Cc1cnc[nH]1)C(=O)N[C@@H](CCCN=C(N)N)C(=O)N[C@@H](CCCN=C(N)N)C(=O)O)[C@@H](C)CC [AFALIAGALYRIFHRR]
- MIC [1]: ≥ 256 µM
- MIC [2]: ≥ 32 µM
- MIC [3]: > 256 µM
- MIC [4]: 7.5 µM (≈ 14.1 µg/mL)
- MIC [5]: 3.5 µM (≈ 6.56 µg/mL)
- MIC [6]: 8 µM (≈ 15 µg/mL)
- MIC [7]: ≥ 256 µM

SMILES: CC[C@H](C)[C@H](NC(=O)[C@H](CC(C)C)NC(=O)[C@@H](NC(=O)[C@@H](N)CC(=O)O)[C@@H](C)CC)C(=O)N[C@H](C(=O)N[C@H](C(=O)NCC(=O)NCC(=O)N[C@@H](CCCCN)C(=O)N[C@@H](CCC(=O)O)C(=O)N[C@@H](CCCN=C(N)N)C(=O)N[C@@H](CCCCN)C(=O)N[C@@H](CCCCN)C(=O)N[C@@H](CCCN=C(N)N)C(=O)N[C@@H](CCCN=C(N)N)C(=O)N[C@@H](CCCN=C(N)N)C(N)=O)C(C)C)[C@@H](C)CC [DILIIVGGKERKKRRR]
- MIC [8]: ≥ 64 µM
- MIC (Escherichia coli UB1005): ≥ 64 µM
- MIC [9]: ≥ 64 µM
- MIC [10]: > 64 µM
- MIC [11]: ≥ 64 µM
- MIC [12]: 4 µM (≈ 7.75 µg/mL)
- MIC [13]: > 64 µM
- MIC [14]: > 64 µM
- MIC [15]: ≥ 64 µM
- MIC (Streptococcus agalactiae): 4 µM (≈ 7.75 µg/mL)
- MIC [5]: > 64 µM
- MIC [16]: > 64 µM
- MIC (Escherichia coli 078): ≥ 64 µM
- MIC [17]: > 64 µM

SMILES: CC[C@H](C)[C@H](NC(=O)[C@H](CC(=O)O)NC(=O)[C@H](Cc1ccccc1)NC(=O)[C@H](CC(C)C)NC(=O)CN)C(=O)N[C@H](C(=O)N[C@@H](CCCCN)C(=O)N[C@@H](CCCCN)C(=O)N[C@H](C(=O)N[C@H](C(=O)N[C@@H](CCCCN)C(=O)N[C@@H](CC(C)C)C(=O)N[C@@H](CC(C)C)C(=O)N[C@@H](CCCCN)C(N)=O)C(C)C)C(C)C)C(C)C [GLFDIVKKVVKLLK]
- MIC [18]: > 20 µM
- MIC [10]: > 20 µM
- MIC [19]: > 20 µM
- MIC [20]: ≥ 50 µM
- MIC [21]: 20 µM (≈ 32 µg/mL)
- MIC [22]: 20 µM (≈ 32 µg/mL)
- MIC [3]: > 20 µM
- MIC [17]: > 20 µM

SMILES: CC[C@H](C)[C@H](NC(=O)[C@H](CCCCN)NC(=O)[C@H](CO)NC(=O)[C@H](Cc1ccccc1)NC(=O)[C@H](CC(C)C)NC(=O)[C@H](CCCCN)NC(=O)[C@H](CCCCN)NC(=O)[C@H](CC(C)C)NC(=O)CN)C(=O)N[C@@H](CCCCN)C(=O)N[C@H](C(=O)N[C@H](C(=O)NCC(=O)N[C@@H](CO)C(=O)N[C@@H](C)C(=O)N[C@@H](CC(C)C)C(=O)N[C@@H](CCCCN)C(=O)N[C@@H](CC(N)=O)C(=O)N[C@@H](CC(C)C)C(=O)N[C@@H](C)C(N)=O)[C@@H](C)CC)[C@@H](C)CC [GLKKLFSKIKIIGSALKNLA]
- MIC (Escherichia coli TOP 10): 1.45 µM (≈ 3.1 µg/mL)

SMILES: CC[C@H](C)[C@H](N)C(=O)N[C@@H](CC(=O)O)C(=O)N[C@@H](Cc1c[nH]c2ccccc12)C(=O)N[C@@H](Cc1cnc[nH]1)C(=O)N[C@@H](Cc1cnc[nH]1)C(=O)N[C@@H](CC(C)C)C(=O)N[C@@H](CC(C)C)C(=O)N[C@@H](CC(=O)O)C(=O)N[C@@H](C)C(=O)N[C@@H](C)C(=O)N[C@@H](Cc1cnc[nH]1)C(=O)N[C@@H](CCC(N)=O)C(=O)N[C@H](C(=O)N[C@@H](CC(C)C)C(N)=O)[C@@H](C)CC [IDWHHLLDAAHQIL]
- MIC [23]: ≥ 64 µM
- MIC [24]: ≥ 64 µM
- MIC [25]: 16 µM (≈ 26.9 µg/mL)
- MIC (Candida krusei ATCC 6258): ≥ 32 µM

SMILES: CC(C)C[C@H](NC(=O)[C@H](CC(C)C)NC(=O)[C@H](CC(C)C)NC(=O)[C@H](CC(C)C)NC(=O)[C@H](CCCCN)NC(=O)[C@H](CCCCN)NC(=O)[C@H](CCCCN)NC(=O)[C@@H](N)CCCCN)C(=O)N[C@@H](CCCN=C(N)N)C(=O)N[C@@H](CCCN=C(N)N)C(N)=O [KKKKLLLLRR]
- MIC [26]: ≥ 386 µM
- MIC (Escherichia coli): 386 µM (≈ 500 µg/mL)

SMILES: CC[C@H](C)[C@H](NC(=O)[C@H](CCCN=C(N)N)NC(=O)[C@H](CCCN=C(N)N)NC(=O)[C@@H](NC(=O)[C@@H](NC(=O)[C@H](CCC(N)=O)NC(=O)[C@@H](N)CCCN=C(N)N)[C@@H](C)CC)[C@@H](C)CC)C(=O)N[C@@H](CCC(N)=O)C(=O)N[C@@H](CCCN=C(N)N)C(N)=O [RQIIRRIQR]
- MIC (Salmonella sp.): ≥ 40.4 µM
- MIC (Yersinia enterocolitica): ≥ 40.4 µM
- MIC [19]: > 40.4 µM
- MIC [27]: ≥ 40.4 µM
- MIC [5]: > 40.4 µM
- MIC (Escherichia coli): > 40.4 µM
- MIC [17]: > 40.4 µM

SMILES: NCCCC[C@H](NC(=O)[C@H](Cc1c[nH]c2ccccc12)NC(=O)[C@H](Cc1c[nH]c2ccccc12)NC(=O)[C@H](CCCCN)NC(=O)[C@H](Cc1c[nH]c2ccccc12)NC(=O)[C@H](Cc1c[nH]c2ccccc12)NC(=O)[C@@H](N)CCCN=C(N)N)C(N)=O [RWWKWWK]
- MIC [28]: ≥ 54.5 µM
- MIC [29]: 27.2 µM (≈ 32 µg/mL)

SMILES: CC[C@H](C)[C@H](NC(=O)[C@H](CCC(N)=O)NC(=O)[C@H](C)NC(=O)[C@H](Cc1cnc[nH]1)NC(=O)[C@@H]1CCCN1C(=O)[C@H](CCCN=C(N)N)NC(=O)[C@@H](NC(=O)[C@@H](NC(=O)[C@H](C)NC(=O)[C@@H]1CCCN1C(=O)[C@H](CC(N)=O)NC(=O)[C@H](C)NC(=O)[C@@H](N)Cc1ccc(O)cc1)C(C)C)C(C)C)C(=O)N1CCC[C@H]1C(=O)N[C@@H](CCC(N)=O)C(=O)N[C@@H](CCCN=C(N)N)C(=O)O [YANPAVVRPHAQIPQR]
- MIC [30]: ≥ 1650 µM
- MIC (Staphylococcus aureus): > 1650 µM
- MIC (Escherichia coli): > 1650 µM
